{"source": "patent US20220402998A1", "about": "“PROTEASE SWITCH FOR DUAL TARGETS CHIMERIC ANTIGEN RECEPTOR T CELL THERAPY” (priority 2019, published 2022)", "tested_on": "NS3/4A protease domain of the CAR", "test": "CAR surface expression on transduced T cells by flow cytometry with or without asunaprevir", "type": "cell-based, hepatitis C virus", "method": "For flow cytometry, cells are stained using standard procedures. Briefly, cells are suspended at a concentration of 1×10^7 cells/ml in PBS+3% FBS for analysis or in Sort Buffer (PBS, 25 mM HEPES, 1 mM EDTA, 0.1% BSA) for sorting. […] Cells are analyzed by flow cytometry using a CytoFLEX (Beckman Coulter Life Sciences, Indianapolis, Ind.) and operated under standard procedures. To enrich subpopulations of CD4+ and/or CD8+ cells, magnetically separated cells are stained with anti-CD4 and/or anti-CD8 antibodies and sorted on a FACScalibur Cell Sorter.\nAfter T cell transduction, different drugs were provided, CD19-, CD22-CAR were detected by CD19, CD22 protein through flow cytometry. Further, the biological characteristics of the dual-target switchable CAR-T cells were determined. For example, CD25 and CD69 antibodies were used to perform activation assays, CFSE for proliferation assays, CD4, CD8, CCR7 and CD45RA antibodies for determining T cell subsets, and Annexin-V for apoptosis assays. Further, cytotoxicity assays (Calcein-AM release), CD107a assay, and cytokine production detection were performed. These assays are of great importance in testing potency and defining how the switch system works."}
{"compound": "C=C[C@@H]1C[C@]1(NC(=O)[C@@H]1C[C@@H](Oc2ncc(OC)c3ccc(Cl)cc23)CN1C(=O)[C@@H](NC(=O)OC(C)(C)C)C(C)(C)C)C(=O)NS(=O)(=O)C1CC1", "note": "[asunaprevir]", "values": [{"measurement": "stability of CAR expression levels over time", "setting": "in the presence of asunaprevir", "result": "stable over time"}, {"measurement": "CAR expression on T cell surface", "setting": "in the presence of asunaprevir, flow cytometry", "result": "a significant portion of T cells express on their cell surface the CAR"}, {"measurement": "expression levels of CARs on cell surface versus concentration", "setting": "increasing concentrations of asunaprevir", "result": "increase with exposure of said T cells to increasing concentrations of asunaprevir"}, {"measurement": "CARs on the surface of CAR-T cells after withdrawal", "setting": "withdrawal of asunaprevir for 24 hours", "result": "significant reduction of CARs on the surface of CAR-T cells"}, {"measurement": "CARs on the surface of CAR-T cells after withdrawal", "setting": "withdrawal of asunaprevir for 48 hours", "result": "absence of CARs on CAR-T cells"}]}
